Test results reported in patent US20100331183A1, “AGENT FOR IMPROVING GOOD RICE SEEDLING GROWTH” (COSMO OIL CO., LTD, priority 2008, published 2010).

Columns and labels:
rice seedlings [1] = test: Effect of improving the growth of rice seedlings - 1 (soil irrigation in seedling box, harvest 33 days from sowing); format: in vivo, rice (koshihikari variety)
Protocol: 450 g/pot of soil was placed in a seedling box (the area was 1/120,000×10 a). The soil used was a purchased volcanic ash soil (andosol). […] Fertilizer application was carried out using a liquid fertilizer, Hyponica, at a rate of 3 kg-N/10 a. […] After 29 days from sowing, additional fertilizer application was carried out using a liquid fertilizer, Hyponica, at a rate of 3 kg-N/10 a. After 33 days from sowing, the plant bodies were harvested, and the fresh weight (roots) and the tillering number were measured.

rice seedlings [2] = test: Effect of improving rice seedling growth - 2 (soil irrigation in seedling box, harvest 22 days from sowing); format: in vivo; details: for SPAD value (chlorophyll content) / Stem thickness: 5-aminolevulinic acid hydrochloride 600 mg/10 a and/or inabenfide 300 g/10 a, n = 15 to 17
Protocol: 450 g/pot of soil was placed in a seedling box (the area was 1/120,000×10 a). The soil used was a purchased volcanic ash soil (andosol). […] Fertilizer application was carried out using a liquid fertilizer, Hyponica, at a rate of 5 kg-N/10 a. […] The results for the fresh weight of roots and the tillering number under various conditions are presented in Table 6, and the results for the stem thickness and the chlorophyll content (SPAD value) under various conditions are presented in Table 7.

rice seedlings [3] = test: Verification of effect: treated seedlings transplanted into paddy field pot, harvest after three weeks; format: in vivo; details: 3 weeks after transplantation into paddy field pot; treated upon raising seedlings: 5-aminolevulinic acid hydrochloride 120 mg/10a and/or inabenfide 1200 g/10a; n = 3
Protocol: 450 g/pot of soil was placed in a seedling box (the area was 1/120,000×10 a). The soil used was a purchased volcanic ash soil (andosol). Rice seeds which had been subjected to brine grading using a brine having a specific gravity of 1.13, and had been germinated, were sowed at a rate of 15 seeds/pot, and the seeds were covered with soil at a depth of 1 to 2 cm (50 g/pot). Fertilizer application was carried out using a liquid fertilizer, Hyponica, at a rate of 5 kg-N/10 a. For each of the test zones (n=4), the soil was irrigated with combinations of inabenfide in an amount of treatment of 1,200 or 300 g/10 a, and 5-aminolevulinic acid hydrochloride in an amount of treatment of 600, 200 or 120 mg/10 a. After 22 days from sowing, the plant bodies were harvested, and the fresh weight (roots), the tillering number, the stem thickness and the chlorophyll content (SPAD value) were measured. The results for the fresh weight of roots and the tillering number under various conditions are presented in Table 6, and the results for the stem thickness and the chlorophyll content (SPAD value) under various conditions are presented in Table 7.
Seedlings were raised in the same manner as in Example 2. In regard to the treatment concentration upon raising seedlings, the treatment was carried out using 5-aminolevulinic acid hydrochloride at a concentration of 120 (mg/10 a) and inabenfide at a concentration of 1,200 (g/10 a). After the seedlings were raised, the roots of four seedlings were evenly cut to 2 cm, and the seedlings were transplanted into a pot simulating the state of paddy field. After three weeks from the transplantation into the pot simulating the state of paddy field, the plant bodies were harvested, and the dry weights of the aerial part and the root part, and the tillering number were measured. The various treatment conditions employed upon raising the seedlings, and the measurement values obtained after 3 weeks from the transplantation into paddy field pot are presented in Table 8.

[4] = 5-aminolevulinic acid hydrochloride 200 mg/10 a and/or paclobutrazole 90 g/10 a
[5] = 5-aminolevulinic acid hydrochloride 120 mg/10 a, inabenfide 0
[6] = 5-aminolevulinic acid hydrochloride 200 mg/10 a, inabenfide 0
[7] = 5-aminolevulinic acid hydrochloride 600 mg/10 a, inabenfide 0
[8] = 5-aminolevulinic acid hydrochloride 200 mg/10 a and/or inabenfide 1200 g/10 a
[9] = 5-aminolevulinic acid hydrochloride 200 mg/10 a and/or prohexadione calcium salt 15 g/10 a
[10] = 5-aminolevulinic acid hydrochloride 200 mg/10 a and/or trinexapac-ethyl 1.25 g/10 a
[11] = 5-aminolevulinic acid hydrochloride 200 mg/10 a and/or uniconazole P 30 g/10 a
[12] = 5-aminolevulinic acid hydrochloride 200 mg/10 a and/or uniconazole P 30 g/10 a, n=4 zones
[13] = inabenfide 300 g/10 a, 5-aminolevulinic acid hydrochloride 0
[14] = inabenfide 1200 g/10 a, 5-aminolevulinic acid hydrochloride 0

Q: What does the source list for `CC(C)(C)[C@@H](O)[C@@H](Cc1ccc(Cl)cc1)n1cncn1` (racemic) [Paclobutrazole, (2RS,3RS)-1-(4-chlorophenyl)-4,4-dimethyl-2-(1H-1,2,4-triazol-1-yl)pentan-3-ol]?
A: Average tillering number per plant body (rice seedlings [1]; [4]): 0.80; Fresh weight of roots (rice seedlings [1]; [4]): 0.29 g

Q: For `Cl.NCC(=O)CCC(=O)O` [5-aminolevulinic acid hydrochloride], which “Average tillering number per plant body” value (rice seedlings [2]; [5]) is on record?
A: The value was 0.03.

Q: And the “Fresh weight of roots” value (rice seedlings [2]; [5])?
A: Its value is 0.35 g.

Q: What about the “Average tillering number per plant body” value (rice seedlings [2]; [6]) of the same molecule?
A: The value was 0.01.

Q: What about the “Fresh weight of roots” value (rice seedlings [2]; [6]) of the same molecule?
A: Its value is 0.36 g.

Q: And the “SPAD value (chlorophyll content)” value (rice seedlings [2])?
A: The value was 28.70.

Q: What about the Stem thickness (rice seedlings [2]) of the same molecule?
A: The Stem thickness was 0.429 cm.

Q: What about the “Average tillering number per plant body” value (rice seedlings [2]; [7]) of the same molecule?
A: Its value is 0.00.

Q: What about the “Fresh weight of roots” value (rice seedlings [2]; [7]) of the same molecule?
A: Its value is 0.35 g.

Q: What about the “Average tillering number per plant body” value (rice seedlings [3]) of the same molecule?
A: The value was 6.7.

Q: And the “Degree of sturdiness (dry weight/height for shoots)” value (rice seedlings [3])?
A: The value was 0.052 g/cm.

Q: And the “Dry weight of roots” value (rice seedlings [3])?
A: Its value is 1.0 g.

Q: What about the “Dry weight of shoots” value (rice seedlings [3]) of the same molecule?
A: Its value is 3.2 g.

Q: What about the “Fresh weight of shoots” value (rice seedlings [3]) of the same molecule?
A: Its value is 14.1 g.

Q: And the “Average tillering number per plant body” value (rice seedlings [1]; [8])?
A: Its value is 0.00.

Q: What about the “Fresh weight of roots” value (rice seedlings [1]; [8]) of the same molecule?
A: The value was 0.29 g.

Q: What about the “Average tillering number per plant body” value (rice seedlings [1]; [4]) of the same molecule?
A: The value was 0.00.

Q: What about the “Fresh weight of roots” value (rice seedlings [1]; [4]) of the same molecule?
A: Its value is 0.29 g.

Q: And the “Fresh weight of roots” value (rice seedlings [1]; [9])?
A: The value was 0.29 g.

Q: What about the “Average tillering number per plant body” value (rice seedlings [1]; [10]) of the same molecule?
A: Its value is 0.00.

Q: What about the “Fresh weight of roots” value (rice seedlings [1]; [10]) of the same molecule?
A: The value was 0.29 g.

Q: And the “Average tillering number per plant body” value (rice seedlings [1]; [11])?
A: The value was 0.00.

Q: What about the “Fresh weight of roots” value (rice seedlings [1]; [12]) of the same molecule?
A: Its value is 0.29 g.

Q: Which “SPAD value (chlorophyll content)” value (rice seedlings [2]) does the source give for `O=C(Nc1ccc(Cl)cc1C(O)c1ccccc1)c1ccncc1` (stereo not drawn) [Inabenfide] here?
A: Its value is 29.23.

Q: And the Stem thickness (rice seedlings [2])?
A: Its Stem thickness is 0.415 cm.

Q: What about the “Average tillering number per plant body” value (rice seedlings [2]; [13]) of the same molecule?
A: The value was 0.11.

Q: And the “Fresh weight of roots” value (rice seedlings [2]; [13])?
A: Its value is 0.35 g.

Q: And the “Average tillering number per plant body” value (rice seedlings [2]; [14])?
A: Its value is 0.41.

Q: And the “Fresh weight of roots” value (rice seedlings [2]; [14])?
A: The value was 0.35 g.

Q: And the “Average tillering number per plant body” value (rice seedlings [3])?
A: The value was 8.0.

Q: And the “Degree of sturdiness (dry weight/height for shoots)” value (rice seedlings [3])?
A: The value was 0.060 g/cm.

Q: And the “Dry weight of roots” value (rice seedlings [3])?
A: The value was 1.1 g.

Q: What about the “Dry weight of shoots” value (rice seedlings [3]) of the same molecule?
A: Its value is 3.6 g.

Q: What about the “Fresh weight of shoots” value (rice seedlings [3]) of the same molecule?
A: The value was 15.8 g.

Q: And the “Average tillering number per plant body” value (rice seedlings [1]; [8])?
A: The value was 0.19.

Q: What about the “Fresh weight of roots” value (rice seedlings [1]; [8]) of the same molecule?
A: Its value is 0.34 g.

Q: For `CCC(=O)C1=C([O-])CC(C(=O)[O-])CC1=O.[Ca+2]` (stereo not drawn) [Prohexadione calcium salt, calcium 3-oxido-5-oxo-4-propionyl-3-cyclohexene carboxylate], which “Fresh weight of roots” value (rice seedlings [1]; [9]) is on record?
A: The value was 0.32 g.

Q: What does the source list for `CCOC(=O)C1CC(=O)C(=C(O)C2CC2)C(=O)C1` (stereo not drawn) [Trinexapac-ethyl, ethyl=4-cyclopropyl-α-hydroxymethylene)-3,5-dioxocyclohexane carboxylate]?
A: Average tillering number per plant body (rice seedlings [1]; [10]): 0.00; Fresh weight of roots (rice seedlings [1]; [10]): 0.23 g

Q: For `CC(C)(C)[C@H](O)/C(=C\c1ccc(Cl)cc1)n1cncn1` [Uniconazole P, (E)-(S)-1-(4-chlorophenyl)-4,4-dimethyl-2-(1H-1,2,4-triazol-1-yl)pent-1-en-3-ol], which “Average tillering number per plant body” value (rice seedlings [1]; [11]) is on record?
A: Its value is 0.86.

Q: And the “Fresh weight of roots” value (rice seedlings [1]; [12])?
A: The value was 0.28 g.
